Consider 27 compounds from patent US8642590B2, “Alkylcyclohexylethers of dihydrotetraazabenzoazulenes” (Hoffmann-La Roche Inc., priority 2008, dated 2014).

Counter-ions that a name gives are not always drawn.

T1 sequence (P37288 whole entry): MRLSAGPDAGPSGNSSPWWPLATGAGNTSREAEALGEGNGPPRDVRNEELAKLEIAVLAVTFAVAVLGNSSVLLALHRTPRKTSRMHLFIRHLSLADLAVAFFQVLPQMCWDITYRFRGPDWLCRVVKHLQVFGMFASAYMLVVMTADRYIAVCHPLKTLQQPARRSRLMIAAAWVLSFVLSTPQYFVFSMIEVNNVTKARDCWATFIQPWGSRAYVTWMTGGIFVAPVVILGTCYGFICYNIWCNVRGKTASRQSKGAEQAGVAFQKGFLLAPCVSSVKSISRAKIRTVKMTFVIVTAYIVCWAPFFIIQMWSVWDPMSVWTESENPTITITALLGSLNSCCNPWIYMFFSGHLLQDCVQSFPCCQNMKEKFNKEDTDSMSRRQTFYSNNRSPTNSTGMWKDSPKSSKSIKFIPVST

The first experiment has as its target T1, human V1a receptor (Homo sapiens, UniProt P37288).
T1 construct: expressed in transfected cells; host or cells: HEK293 cells, transiently transfected; cell membranes prepared
The experiment in a line: human V1a receptor binding study (3H-Vasopressin, SPA beads, HEK293 membranes).
Conditions: not given
The procedure:
The human V1a receptor was cloned by RT-PCR from total human liver RNA. The coding sequence was subcloned in an expression vector after sequencing to confirm the identity of the amplified sequence. […] Cell membranes were prepared from HEK293 cells transiently transfected with the expression vector and grown in 20 liter fermenters with the following protocol.
50 g of cells are resuspended in 30 ml freshly prepared ice cold Lysis buffer (50 mM HEPES, 1 mM EDTA, 10 mM magnesium dichloride adjusted to pH=7.4+complete cocktail of protease inhibitor (Roche Diagnostics)). Homogenized with Polytron for 1 min and sonicated on ice for 2×2 minutes at 80% intensity (Vibracell sonicator). The preparation is centrifuged 20 min at 500 g at 4° C., the pellet is discarded and the supernatant centrifuged 1 hour at 43,000 g at 4° C. (19,000 rpm). The pellet is resuspended in 12.5 ml Lysis buffer+12.5 ml Sucrose 20% and homogenized using a Polytron for 1-2 min. The protein concentration is determined by the Bradford method and aliquots are stored at −80° C. until use. For binding studies 60 mg Yttrium silicate SPA beads (Amersham) are mixed with an aliquot of membrane in binding buffer (50 mM Tris, 120 mM sodium chloride, 5 mM potassium chloride, 2 mM Calcium dichloride, 10 mM magnesium dichloride) for 15 minutes with mixing. 50 μl of bead/membrane mixture is then added to each well of a 96 well plate, followed by 50 μl of 4 nM 3H-Vasopressin (American Radiolabeled Chemicals). For total binding measurement 100 μl of binding buffer are added to the respective wells, for non-specific binding 100 μl of 8.4 mM cold vasopressin and for compound testing 100 μl of a serial dilution of each compound in 2% dimethyl sulfoxide. The plate is incubated 1 h at room temperature, centrifuged 1 min at 1000 g and counted on a Packard Top-Count. Non-specific binding counts are subtracted from each well and data is normalized to the maximum specific binding set at 100%. To calculate an IC 50 the curve is fitted using a non-linear regression model (XLfit) and the Ki is calculated using the Cheng-Prussoff equation.
`CC(C)(C)OC(=O)N1Cc2cc(Cl)ccc2-n2c(nnc2[C@H]2CC[C@H](OC3CCC3)CC2)C1` [Example 30, trans-8-Chloro-1-(4-cyclobutoxy-cyclohexyl)-4H,6H-2,3,5,10b-tetraaza-benzo[e]azulene-5-carboxylic acid tert-butyl ester] had a Ki of 2.82 nM.
On the same count and under the same terms, for `CC(C)(C)OC(=O)N1Cc2cc(Cl)ccc2-n2c(nnc2[C@H]2CC[C@@H](OC3CCC3)CC2)C1` [Example 33, cis-8-Chloro-1-(4-cyclobutoxy-cyclohexyl)-4H,6H-2,3,5,10b-tetraaza-benzo[e]azulene-5-carboxylic acid tert-butyl ester] the value was 7.59 nM.
In the case of `CC(C)(C)OC(=O)N1Cc2cc(Cl)ccc2-n2c(nnc2[C@H]2CC[C@H](OC3CCCCC3)CC2)C1` [Example 39, trans-8-Chloro-1-(4-cyclohexyloxy-cyclohexyl)-4H,6H-2,3,5,10b-tetraaza-benzoazulene-5-carboxylic acid tert-butyl ester], the Ki is 6.46 nM.
`CC(C)(C)OC(=O)N1Cc2cc(Cl)ccc2-n2c(nnc2[C@H]2CC[C@@H](OC3CCCCC3)CC2)C1` [Example 42, cis-8-Chloro-1-(4-cyclohexyloxy-cyclohexyl)-4H,6H-2,3,5,10b-tetraaza-benzoazulene-5-carboxylic acid tert-butyl ester]: the Ki is 17.8 nM.
Take `CC(C)(C)OC(=O)N1Cc2cc(Cl)ccc2-n2c(nnc2[C@H]2CC[C@H](OC3COC3)CC2)C1` [Example 57, trans-8-Chloro-1-[4-(oxetan-3-yloxy)-cyclohexyl]-4H,6H-2,3,5,10b-tetraaza-benzo[e]azulene-5-carboxylic acid tert-butyl ester]: the Ki was 6.17 nM.

The experiment is the same for the next values; noted with them: membranes of HEK293 cells transiently transfected with human V1a receptor; 3H-Vasopressin; Ki calculated using the Cheng-Prussoff equation; read-out: pKi (hV1a) (converted).
As to `CC(C)O[C@H]1CC[C@H](c2nnc3n2-c2ccc(F)cc2CN(C)C3)CC1` [Example 21, trans-8-Fluoro-1-(4-isopropoxy-cyclohexyl)-5-methyl-5,6-dihydro-4H-2,3,5,10b-tetraaza-benzo[e]azulene], the Ki was 29.5 nM.
On the same count and under the same terms, for `CC(C)O[C@H]1CC[C@@H](c2nnc3n2-c2ccc(Cl)cc2CN(C(=O)OC(C)(C)C)C3)CC1` [Example 22, cis-8-Chloro-1-(4-isopropoxy-cyclohexyl)-4H,6H-2,3,5,10b-tetraaza-benzo[e]azulene-5-carboxylic acid tert-butyl ester] the value was 8.91 nM.
On to `CC(C)O[C@H]1CC[C@@H](c2nnc3n2-c2ccc(Cl)cc2CNC3)CC1` [Example 23, cis-8-Chloro-1-(4-isopropoxy-cyclohexyl)-5,6-dihydro-4H-2,3,5,10b-tetraaza-benzo[e]azulene hydrochloride], for which the Ki was 363 nM.
In the case of `CC(C)O[C@H]1CC[C@@H](c2nnc3n2-c2ccc(Cl)cc2CN(C)C3)CC1` [Example 24, cis-8-Chloro-1-(4-isopropoxy-cyclohexyl)-5-methyl-5,6-dihydro-4H-2,3,5,10b-tetraaza-benzo[e]azulene], the Ki was 26.9 nM.
Turning to `Clc1ccc2c(c1)CNCc1nnc([C@H]3CC[C@H](OC4CCC4)CC3)n1-2` [Example 31, trans-8-Chloro-1-(4-cyclobutoxy-cyclohexyl)-5,6-dihydro-4H-2,3,5,10b-tetraaza-benzo[e]azulene hydrochloride], the Ki is 10.7 nM.
On the same count and under the same terms, for `CN1Cc2cc(Cl)ccc2-n2c(nnc2[C@H]2CC[C@H](OC3CCC3)CC2)C1` [Example 32, trans-8-Chloro-1-(4-cyclobutoxy-cyclohexyl)-5-methyl-5,6-dihydro-4H-2,3,5,10b-tetraaza-benzo[e]azulene] the value was 1.29 nM.
Same read-out and setting: for `Clc1ccc2c(c1)CNCc1nnc([C@H]3CC[C@@H](OC4CCC4)CC3)n1-2` [Example 34, cis-8-Chloro-1-(4-cyclobutoxy-cyclohexyl)-5,6-dihydro-4H-2,3,5,10b-tetraaza-benzo[e]azulene hydrochloride] the value was 145 nM; for `CN1Cc2cc(Cl)ccc2-n2c(nnc2[C@H]2CC[C@@H](OC3CCC3)CC2)C1` [Example 35, cis-8-Chloro-1-(4-cyclobutoxy-cyclohexyl)-5-methyl-5,6-dihydro-4H-2,3,5,10b-tetraaza-benzo[e]azulene], 7.94 nM; for `Clc1ccc2c(c1)CNCc1nnc([C@H]3CC[C@H](OC4CCCC4)CC3)n1-2` [Example 37, trans-8-Chloro-1-(4-cyclopentyloxy-cyclohexyl)-5,6-dihydro-4H-2,3,5,10b-tetraaza-benzo[e]azulene hydrochloride], 3.47 nM.
Still for that read-out and setting: for `CN1Cc2cc(Cl)ccc2-n2c(nnc2[C@H]2CC[C@H](OC3CCCC3)CC2)C1` [Example 38, trans-8-Chloro-1-(4-cyclopentyloxy-cyclohexyl)-5-methyl-5,6-dihydro-4H-2,3,5,10b-tetraaza-benzo[e]azulene] the value was 0.794 nM; for `Clc1ccc2c(c1)CNCc1nnc([C@H]3CC[C@H](OC4CCCCC4)CC3)n1-2` [Example 40, trans-8-Chloro-1-(4-cyclohexyloxy-cyclohexyl)-5,6-dihydro-4H-2,3,5,10b-tetraaza-benzoazulene hydrochloride], 34.7 nM; for `CN1Cc2cc(Cl)ccc2-n2c(nnc2[C@H]2CC[C@H](OC3CCCCC3)CC2)C1` [Example 41, trans-8-Chloro-1-(4-cyclohexyloxy-cyclohexyl)-5-methyl-5,6-dihydro-4H-2,3,5,10b-tetraaza-benzoazulene], 2.88 nM.
Consider `Clc1ccc2c(c1)CNCc1nnc([C@H]3CC[C@@H](OC4CCCCC4)CC3)n1-2` [Example 43, cis-8-Chloro-1-(4-cyclohexyloxy-cyclohexyl)-5,6-dihydro-4H-2,3,5,10b-tetraaza-benzoazulene hydrochloride], for which the Ki was 174 nM.
Turning to `CN1Cc2cc(Cl)ccc2-n2c(nnc2[C@H]2CC[C@@H](OC3CCCCC3)CC2)C1` [Example 44, cis-8-Chloro-1-(4-cyclohexyloxy-cyclohexyl)-5-methyl-5,6-dihydro-4H-2,3,5,10b-tetraaza-benzoazulene], the Ki is 14.1 nM.
For `CN1Cc2cc(Cl)ccc2-n2c(nnc2[C@H]2CC[C@H](OC3COC3)CC2)C1` [Example 58, trans-8-Chloro-5-methyl-1-[4-(oxetan-3-yloxy)-cyclohexyl]-5,6-dihydro-4H-2,3,5,10b-tetraaza-benzo[e]azulene], the Ki is 46.8 nM.
Same read-out and setting: for `CC(C)(C)OC(=O)N1Cc2cc(Cl)ccc2-n2c(nnc2[C@H]2CC[C@H](OC3CCOCC3)CC2)C1` [Example 59, trans-8-Chloro-1-[4-(tetrahydro-pyran-4-yloxy)-cyclohexyl]-4H,6H-2,3,5,10b-tetraaza-benzoazulene-5-carboxylic acid tert-butyl ester] the value was 5.62 nM; for `CC(C)(C)OC(=O)N1Cc2cc(Cl)ccc2-n2c(nnc2[C@H]2CC[C@@H](OC3CCOCC3)CC2)C1` [Example 60, cis-8-Chloro-1-[4-(tetrahydro-pyran-4-yloxy)-cyclohexyl]-4H,6H-2,3,5,10b-tetraaza-benzoazulene-5-carboxylic acid tert-butyl ester], 7.08 nM; for `Clc1ccc2c(c1)CNCc1nnc([C@H]3CC[C@H](OC4CCOCC4)CC3)n1-2` [Example 61, trans-8-Chloro-1-[4-(tetrahydro-pyran-4-yloxy)-cyclohexyl]-5,6-dihydro-4H-2,3,5,10b-tetraaza-benzoazulene hydrochloride], 447 nM.
As to `CN1Cc2cc(Cl)ccc2-n2c(nnc2[C@H]2CC[C@H](OC3CCOCC3)CC2)C1` [Example 62, trans-8-Chloro-5-methyl-1-[4-(tetrahydro-pyran-4-yloxy)-cyclohexyl]-5,6-dihydro-4H-2,3,5,10b-tetraaza-benzoazulene], the Ki is 20 nM.
Still for that read-out and setting: for `Clc1ccc2c(c1)CNCc1nnc([C@H]3CC[C@@H](OC4CCOCC4)CC3)n1-2` [Example 63, cis-8-Chloro-1-[4-(tetrahydro-pyran-4-yloxy)-cyclohexyl]-5,6-dihydro-4H-2,3,5,10b-tetraaza-benzoazulene hydrochloride] the value was 288 nM.
On the same count and under the same terms, for `CN1Cc2cc(Cl)ccc2-n2c(nnc2[C@H]2CC[C@@H](OC3CCOCC3)CC2)C1` [Example 64, cis-8-Chloro-5-methyl-1-[4-(tetrahydro-pyran-4-yloxy)-cyclohexyl]-5,6-dihydro-4H-2,3,5,10b-tetraaza-benzoazulene] the value was 17 nM; for `CC(C)(C)OC(=O)N1Cc2cc(Cl)ccc2-n2c(nnc2[C@H]2CC[C@H](OC(F)(F)F)CC2)C1` [Example 65, trans-8-Chloro-1-(4-trifluoromethoxy-cyclohexyl)-4H,6H-2,3,5,10b-tetraaza-benzo[e]azulene-5-carboxylic acid tert-butyl ester], 14.5 nM.
